Test results published in a melting point compilation (Tetko et al.).

| Compound | melting point |
| --- | --- |
| CC(C)c1ccc(Br)cc1 | -12 °C |
| CC12CCC3C(CCC4CC(=O)CCC43C)C1CCC2O (stereo unspecified) | 181 °C |
| COc1ccc(S(N)(=O)=O)c(OC)c1 | 168 °C |
| COc1ccccc1C=CC(=O)c1ccc(O)cc1O | 177 °C |
| O=C1NC(=O)c2cc([N+](=O)[O-])ccc21 | 206 °C |
| CC(=O)OC1CCC2(C)C(CCC3C2CCC2(C)C3CCC(=O)C2(C)OC(C)=O)C1 (stereo unspecified) | 195 to 207 °C |
| CC1C=C(CO)N=N1 (stereo unspecified) | 79 °C |
| CN(C)S(=O)(=O)N(SC(F)(Cl)Cl)c1ccccc1 | 106 °C |
| CCCCCCCCCCCCCCCCCCCCCCCCCCCCCC[Si](Cl)(Cl)Cl | 60 to 80 °C |
| CC(C)(C)OC(=O)N1CCC(c2nc(C(=O)O)cs2)CC1 | 162 to 166 °C |
| Cc1ccnc(O)c1[N+](=O)[O-] | 228 to 232 °C |
| O=C(S)c1ccccc1 | 24 °C |
| O=c1ccnc2n(-c3ccccc3)[nH]cc1-2 | 167 °C |
| Fc1cccc2cc[nH]c12 | 62 °C |
| Nc1ccc(-c2ccc(-c3ccc(N)cc3)cc2)cc1 | 247 °C |
| CCOC(=O)/C(=C\c1ccccc1)c1ccccc1[N+](=O)[O-] | 95 °C |
| COc1ccc(N/N=C2\C(=O)N(CO)N=C2C(F)(F)F)cc1 | 142 °C |
| Clc1nc2ccccc2s1 | 31.5 °C |

| Compound | melting point |
| --- | --- |
| O=C(O)C(O)(c1ccccc1)C1CCCCC1 (stereo unspecified) | 163 to 164 °C |
| CC(C)C(C(=O)O)C(=O)O | 90 to 93 °C |
| CC(=O)c1cc(C)c(C)cc1O | 69 to 73 °C |
| CC(=O)OC1(C)Cc2c(C)c(C)c(C)c(C)c21 (stereo unspecified) | 70 °C |
| NN1C(=O)CSC1=S | 102 °C |
| Cc1cc(C2(c3cc(C)c(O)c(CN(CC(=O)O)CC(=O)O)c3)OC(=O)c3ccccc32)cc(CN(CC(=O)O)CC(=O)O)c1O | 181 °C |
| CC(=O)c1cccc2ccccc12 | 34 °C |
| O=[N+]([O-])c1ccc(ON=Cc2cc(Br)c(O)c(Br)c2)c([N+](=O)[O-])c1 | 196 °C |
| O=C(O)CCC(=O)c1ccc(Br)cc1 | 146 to 147 °C |
| CCOC(CNC1=CC(=O)C=CC1=O)OCC | 70 °C |
| O=C(Cl)OCC1=Cc2ccccc2S1(=O)=O | 77 °C |
| CC(=O)c1c(C)c(C)cc(C)c1C | 75 °C |
| NC(=NO)c1ccc(OC(F)(F)F)cc1 | 113 to 115 °C |
| COc1ccc(OC(C)=O)cc1 | 32 °C |
| C=C(Cl)c1ccccc1 | -23 °C |
| O=C(O)C=Cc1cccc(C(Br)=C(Br)C(=O)O)c1 | 214 °C |
| CN(C)C(=O)c1ccccc1 | 44 °C |
| COC(=O)CCC(C)C1CCC2=C3CCC4CC(OC(C)=O)CCC4(C)C3CC(OC(C)=O)C21C (stereo unspecified) | 234 °C |

Second part, the compound after the results:

| melting point | Compound |
| --- | --- |
| 55 to 58 °C | O=C1CSC(c2cccs2)C1 (stereo unspecified) |
| 207 to 209 °C | Cc1ccc(/C=N/c2nc(C(F)(F)F)n[nH]2)cc1 |
| 105 °C | Cc1cnc(Br)c(N)c1 |
| 192 to 193 °C | O=C1OC(c2ccccc2)=NC1=Cc1ccc(Cl)cc1 |
| 40 to 45 °C | CCc1c(C)n[nH]c1C |
| 119 °C | Brc1cccc(Br)n1 |
| 208 °C | Cc1ccc(C=NC2=NC(C(F)(F)F)N=N2)cc1 (stereo unspecified) |
| 272 °C | C(=C/c1ccco1)/c1ccc2cc3ccc(/C=C/c4ccco4)nc3cc2n1 |
| 248 °C | Cc1ncc(CO)c(C(=O)O)c1O |
| 174 °C | CC(=O)OC(/C=C/c1ccccc1)=NNC(N)=O |
| 251 °C | Brc1cc2ccc1CCc1ccc(c(Br)c1)CC2 |
| 81 °C | CC(C)(C)OC(=O)NC(CI)C(=O)OCc1ccccc1 (stereo unspecified) |
| 162 °C | Cc1nn(C(=O)c2ccncc2)c2c1nnc1ccc(Cl)cc12 |
| 290 °C | Cn1c(=O)c2[nH]c(Cl)nc2n(C)c1=O |
| 134 to 139 °C | CCOC(=O)N1CCC2(CC1)C(=O)N(CO)CN2c1ccccc1 |
